Measured values reported in patent US20260262643A1, “HERBICIDAL BENZOXAZINES” (FMC CORPORATION, priority 2022, published 2026).

Assays:
[1] = test system: barnyardgrass; experiment: Test D flooded paddy test; format: in vivo, Echinochloa crus-galli; conditions: 250 g ai/ha, applied to paddy water, visual rating after 13 to 14 days, scale 0 to 100 (0 no effect, 100 complete control)
How it was run: (§1)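 Plants grown to the 2-leaf stage; pots flooded to 3 cm above soil at treatment and held at that depth throughout. Test compounds applied directly to the paddy water. After 13 to 14 days in a greenhouse, response was rated visually versus controls on a 0 (no effect) to 100 (complete control) scale.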

[2] = test system: rice; experiment: Test D flooded paddy test; format: in vivo, Oryza sativa; conditions: 250 g ai/ha, applied to paddy water, visual rating after 13 to 14 days, scale 0 to 100 (0 no effect, 100 complete control)
How it was run: as §1

[3] = test system: wheat; experiment: Test C preemergence; format: in vivo, Triticum aestivum
How it was run: (§2)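 Pre: seeds in loam/sand, directed soil spray. Post: 1–2 leaf plants, 2–10 cm. Cmpd in non-phytotoxic solvent + surfactant. Greenhouse 10 d; visual rating vs untreated, 0 = none, 100 = complete control.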

[4] = test system: ryegrass, Italian; experiment: Test C postemergence; format: in vivo, Lolium multiflorum; conditions: Postemergence, 125 g ai/ha; 0 to 100 scale (0 no effect, 100 complete control), 10 days
How it was run: as §2

[5] = test system: galium; experiment: Test C postemergence; format: in vivo, Galium aparine; conditions: 10 days, 0 to 100 scale (0 no effect, 100 complete control)
How it was run: as §2

[6] = test system: green foxtail; experiment: Test C preemergence; format: in vivo, Setaria viridis
How it was run: as §2

[7] = test system: kochia; experiment: Test C preemergence; format: in vivo, Bassia scoparia
How it was run: as §2

[8] = test system: pigweed, palmer; experiment: Test C postemergence; format: in vivo, Amaranthus palmeri; conditions: 10 days, 0 to 100 scale (0 no effect, 100 complete control)
How it was run: as §2

[9] = test system: ducksalad; experiment: Test D flooded paddy test; format: in vivo, Heteranthera limosa; conditions: 250 g ai/ha, applied to paddy water, visual rating after 13 to 14 days, scale 0 to 100 (0 no effect, 100 complete control)
How it was run: as §1

[10] = test system: horseweed; experiment: Test C postemergence; format: in vivo, Erigeron canadensis; conditions: 10 days, 0 to 100 scale (0 no effect, 100 complete control)
How it was run: as §2

[11] = test system: oat, wild; experiment: Test C preemergence; format: in vivo, Avena fatua
How it was run: as §2

[12] = test system: kochia; experiment: Test C postemergence; format: in vivo, Bassia scoparia; conditions: 10 days, 0 to 100 scale (0 no effect, 100 complete control)
How it was run: as §2

[13] = test system: barnyardgrass; experiment: Test C preemergence; format: in vivo, Echinochloa crusgalli
How it was run: as §2

[14] = test system: wheat; experiment: Test C postemergence; format: in vivo, Triticum aestivum; conditions: Postemergence, 125 g ai/ha; 0 to 100 scale (0 no effect, 100 complete control), 10 days
How it was run: as §2

[15] = test system: ryegrass, Italian; experiment: Test C preemergence; format: in vivo, Lolium multiflorum
How it was run: as §2

[16] = test system: ragweed; experiment: Test C postemergence; format: in vivo, Ambrosia artemisiifolia; conditions: Postemergence, 125 g ai/ha; 0 to 100 scale (0 no effect, 100 complete control), 10 days
How it was run: as §2

[17] = test system: blackgrass; experiment: Test C preemergence; format: in vivo, Alopecurus myosuroides
How it was run: as §2

[18] = test system: oat, wild; experiment: Test C postemergence; format: in vivo, Avena fatua; conditions: 10 days, 0 to 100 scale (0 no effect, 100 complete control)
How it was run: as §2

[19] = test system: corn; experiment: Test C preemergence; format: in vivo, Zea mays
How it was run: as §2

[20] = test system: corn; experiment: Test C postemergence; format: in vivo, Zea mays; conditions: 10 days, 0 to 100 scale (0 no effect, 100 complete control)
How it was run: as §2

[21] = test system: blackgrass; experiment: Test C postemergence; format: in vivo, Alopecurus myosuroides; conditions: 10 days, 0 to 100 scale (0 no effect, 100 complete control)
How it was run: as §2

[22] = test system: sedge, umbrella; experiment: Test D flooded paddy test; format: in vivo, Cyperus difformis; conditions: 250 g ai/ha, applied to paddy water, visual rating after 13 to 14 days, scale 0 to 100 (0 no effect, 100 complete control)
How it was run: as §1

[23] = test system: ragweed; experiment: Test C preemergence; format: in vivo, Ambrosia artemisiifolia
How it was run: as §2

[24] = test system: pigweed, palmer; experiment: Test C preemergence; format: in vivo, Amaranthus palmeri
How it was run: as §2

[25] = test system: soybean; experiment: Test C postemergence; format: in vivo, Glycine max; conditions: Postemergence, 125 g ai/ha; 0 to 100 scale (0 no effect, 100 complete control), 10 days
How it was run: as §2

[26] = test system: barnyardgrass; experiment: Test C postemergence; format: in vivo, Echinochloa crusgalli; conditions: 10 days, 0 to 100 scale (0 no effect, 100 complete control)
How it was run: as §2

[27] = test system: green foxtail; experiment: Test C postemergence; format: in vivo, Setaria viridis; conditions: 10 days, 0 to 100 scale (0 no effect, 100 complete control)
How it was run: as §2

[28] = test system: soybean; experiment: Test C preemergence; format: in vivo, Glycine max
How it was run: as §2

[29] = 500 g ai/ha, preemergence, 0 to 100 scale (0 no effect, 100 complete control)
[30] = Preemergence, 125 g ai/ha, 0 to 100 scale, 0 no effect, 100 complete control

SMILES: CCOC[C@H]1CN(C(=O)c2cc(-n3cnc(C(C)C)n3)cc3c2OCCO3)c2cccc(Cl)c2O1 [Compound 396]
- Plant response rating, Barnyardgrass (Flood) [1]: 0
- Plant response rating, Rice (Flood) [2]: 0
- Wheat plant response rating [3, 29]: 30
- Plant response rating, Wheat [3, 30]: 0
- Plant response rating, Ryegrass, Italian [4]: 0
- Plant response rating, Galium ([5]; 500 g ai/ha, postemergence): 100
- Plant response rating, Galium ([5]; Postemergence, 125 g ai/ha): 100
- Foxtail, Green plant response rating [6, 29]: 100
- Plant response rating, Foxtail, Green [6, 30]: 90
- Kochia plant response rating [7, 29]: 90
- Plant response rating, Kochia [7, 30]: 70
- Plant response rating, Pigweed, Palmer ([8]; 500 g ai/ha, postemergence): 90
- Plant response rating, Pigweed, Palmer ([8]; Postemergence, 125 g ai/ha): 90
- Plant response rating, Ducksalad (Flood) [9]: 0
- Plant response rating, Horseweed ([10]; 500 g ai/ha, postemergence): 60
- Plant response rating, Horseweed ([10]; Postemergence, 125 g ai/ha): 0
- Oat, Wild plant response rating [11, 29]: 90
- Plant response rating, Oat, Wild [11, 30]: 30
- Plant response rating, Kochia ([12]; 500 g ai/ha, postemergence): 100
- Plant response rating, Kochia ([12]; Postemergence, 125 g ai/ha): 80
- Barnyardgrass plant response rating [13, 29]: 90
- Plant response rating, Barnyardgrass [13, 30]: 50
- Plant response rating, Wheat [14]: 20
- Ryegrass, Italian plant response rating [15, 29]: 90
- Plant response rating, Ryegrass, Italian [15, 30]: 60
- Plant response rating, Ragweed [16]: 70
- Blackgrass plant response rating [17, 29]: 40
- Plant response rating, Blackgrass [17, 30]: 20
- Plant response rating, Oat, Wild ([18]; 500 g ai/ha, postemergence): 40
- Plant response rating, Oat, Wild ([18]; Postemergence, 125 g ai/ha): 20
- Corn plant response rating [19, 29]: 40
- Plant response rating, Corn [19, 30]: 10
- Plant response rating, Corn ([20]; 500 g ai/ha, postemergence): 60
- Plant response rating, Corn ([20]; Postemergence, 125 g ai/ha): 50
- Plant response rating, Blackgrass ([21]; 500 g ai/ha, postemergence): 70
- Plant response rating, Blackgrass ([21]; Postemergence, 125 g ai/ha): 30
- Plant response rating, Sedge, Umbrella (Flood) [22]: 0
- Ragweed plant response rating [23, 29]: 90
- Plant response rating, Ragweed [23, 30]: 80
- Pigweed, Palmer plant response rating [24, 29]: 100
- Plant response rating, Pigweed, Palmer [24, 30]: 100
- Plant response rating, Soybean [25]: 100
- Plant response rating, Barnyardgrass ([26]; 500 g ai/ha, postemergence): 50
- Plant response rating, Barnyardgrass ([26]; Postemergence, 125 g ai/ha): 30
- Plant response rating, Foxtail, Green ([27]; 500 g ai/ha, postemergence): 80
- Plant response rating, Foxtail, Green ([27]; Postemergence, 125 g ai/ha): 60
- Soybean plant response rating [28, 29]: 100
- Plant response rating, Soybean [28, 30]: 60
